Reference: patent US12606559B2, “JAK inhibitor compounds, methods for synthesizing same and use thereof” (GALDERMA HOLDING SA, priority 2020, dated 2026)
“Also recorded” adds a separate entry of the source. Read-outs that look alike come from different tables or passages of the source.

Experiments:
[1] = Kinetic aqueous solubility; type: physicochemical
[2] = Intrinsic clearance in rat hepatocytes; type: in vitro ADME, male Wistar Han rats; conditions: 2.5 μM
Procedure: (§1) The intrinsic clearance was assessed in cryopreserved Hepatocytes obtained by Human livers donors of mix gender pooled together, male balb-c mouse, male Wistar Han rats and male Göttingen minipig, by looking at the parent compound disappearance. The incubations were performed using a final concentration of viable cells of 1 million/ml (viability above 70%) and test item of 2.5 μM. Incubations were followed up to 2 h. Aliquotes were withdrawn at different time points and reaction quenched with acetonitrile. After centrifugation the supernatant was analyzed by HPLC/MS to quantify the remaining amount of parent in comparison with time 0. The clearance was calculated by fitting the log of the percentage remaining with Graphpad Prism ver.7.

[3] = In vivo pharmacokinetic analysis in minipig, iv; design: species or system male Göttingen minipigs; conditions: iv 1 mg/kg
Procedure: Three male Göttingen minipigs. Compound was administered intravenously to fed animals at a target dose of 1 mg/kg, dose volume 1 mL/kg, in DMSO: hydroxypropyl-β-cyclodextrin 20% in phosphate buffer 60 mM pH 7 (5:95). Blood samples were collected at various time points. Blood samples were then assayed using a method based upon protein precipitation with acetonitrile followed by LC/MS/MS analysis. Non-compartmental methods were used for pharmacokinetic analysis of blood concentration versus time data.

[4] = Intrinsic clearance in minipig hepatocytes; type: in vitro ADME, male Göttingen minipig; conditions: 2.5 μM
Procedure: as §1

[5] = Human skin ex vivo: flux through skin and dermis concentration (Franz cells); type: in vitro ADME; conditions: PG/H2O cream 1 mg/mL
[6] = system: IL6 signalling in hWB; experiment: hWB assay, IL6; type: cell-based, human; conditions: Homo sapiens, read-out: hWB assay: IC50 IL6
[7] = Protein binding analysis (RED), mouse plasma; type: in vitro ADME, male balb-c mice; conditions: 5 μM, RED 4 h
Procedure: (§2) The protein binding was assessed in plasma of Human, male balb-c mice, male Wistar Han rat, male Gottingen minipig by rapid equilibrium dialysis (RED) devices. After the plasma and buffer phosphate 50 mM pH7.4 were equilibrated at 37° C., the compound was added to plasma to reach a final concentration of 5 μM. An aliquot of plasma was withdrawn immediately. Equilibration under mild agitation was continued for 4 h. The plasma and buffer were sampled and samples were quenched with 4 volumes of acetonitrile and centrifuged. Supernatant was quantified in HPLC/MS/MS to calculate the recovery and the percentage of compound dissolved in the buffer (unbound) and bound to plasma proteins.

[8] = system: IL-6 induced Phospho-STAT3 (Tyr705) in TF-1 cells; experiment: In vitro cellular pSTAT3 assay, IL-6 stimulated TF-1 cells; type: cell-based; conditions: Homo sapiens
[9] = Systemic level in PD/IL6 mouse topical dose response; conditions: topical 10 mM, PG/Acetone/Transcutol
[10] = Thermodynamic solubility PG_H2O pH 6 2/8; type: physicochemical; conditions: amorphous, no cristalline material available
[11] = Intrinsic clearance in mouse hepatocytes; type: in vitro ADME, male balb-c mouse; conditions: 2.5 μM
Procedure: as §1

[12] = Protein binding analysis (RED), rat plasma; type: in vitro ADME, male Wistar Han rat; conditions: 5 μM, RED 4 h
Procedure: as §2

[13] = Intrinsic clearance in human hepatocytes; type: in vitro ADME; conditions: 2.5 μM
Procedure: as §1

[14] = In vivo pharmacokinetic analysis in rat, iv; design: species or system male Wistar Han rat; conditions: iv 1 mg/kg
Procedure: One male Wistar Han rat. Compound was administered intravenously to fed animal at a target dose of 1 mg/kg, dose volume: 2 mL/kg, in DMSO/hydroxypropyl-beta-cyclodextrin 20% in phosphate buffer 60 mM pH 7 (5:95). Blood samples were collected at various time points. Blood samples were then assayed using a method based upon protein precipitation with acetonitrile followed by LC/MS/MS analysis. Non-compartmental methods were used for pharmacokinetic analysis of blood concentration versus time data

[15] = Protein binding analysis (RED), human plasma; type: in vitro ADME; conditions: 5 μM, RED 4 h
Procedure: as §2

[16] = system: 44 targets (binding and enzyme/uptake assays); experiment: CEREP Safety Screen-44; conditions: 10 μM
Procedure: An in vitro pharmacology assay was conducted to assess the capability of the compounds to interact with different pharmacological targets when tested at 10 μM in different binding and enzyme/uptake assays. The included targets are indicative of potential effects in major organs and drug-drug interactions.
Compound binding was calculated as a % inhibition of the binding of a radioactively labelled ligand specific for each target. […] […].

**Q.** What does the source list for `N#CC[C@H](C1CCCC1)n1cc(-c2ncnc3[nH]ccc23)cn1` [Ruxolitinib, reference compound]?
**A.** Kinetic aq sol [1]: 232/ND (no cristalline microM; Intr. Clear. rheps [2]: 300 microL/min/10 6 cells; iv PK minipig: Cl (value in brackets, %) [3]: 68%; Intr. Clear. minipig heps [4]: 141 microL/min/10 6 cells; measured flux 6-24 hr [5]: 5.3 ng/cm^2/hr; IC50 [6]: 6900 nM; mFU [7]: 7.7%; IC50 ([8]; TF-1, read-out: Cellular Assay: IC50 IL6): 8 nM; IC50 ([8]; TF-1, read-out: Free IC50): 200 nM; PD/IL6 mouse top DR 0.01-10 mM: Systemic level @ 10 mM - 2 hrs [9]: 81 nM; Sol PG_H2O pH 6 2/8, amorphous material [10]: material available-1 mM; also recorded: (0.3 mg/mL)-amorphous); Intr. Clear. mheps [11]: 150 microL/min/10 6 cells; rFU [12]: 13%; Intr. Clear. h heps [13]: 4.4 microL/min/10 6 cells; iv PK rat: Cl (value in brackets, %) [14]: 51%; hFU [15]: 4%; Safety panel (Cerep): 44 targets % inh @ 10 microM, Nb of targets > 50% inh [16]: 0/44
